Reference: patent publication US20230356105A1, “TETRAAZADODECANE BASED CHELATING AGENTS FOR SEPARATION OF RARE EARTH ELEMENTS AND METHOD THEREFOR” (Ustav Organicke Chemie a Biochemie AV CR V.V.I., priority 2020, published 2023)
Several values for one entry are separate records, joined by “and”; a condition that tells them apart may be missing. Equal entries are not always repeated.

Assays:
[1] = Separation of Ho/Er mixture using L1 with repeated dissolution of the precipitate with heat (Example 12); format: physicochemical; conditions: for Precipitate concentration [mM] Ho: dissolved to 200 μL
Protocol: The experiment was conducted according to Example 11), the difference being that instead of dissolving the precipitate in acid and neutralizing by addition of base, 200 μL of water were added to the precipitate and the suspension was stirred at 80° C. for 24 hours. Full dissolution of the precipitate was not achieved during this process, but a saturated solution was formed. After cooling to room temperature, the mixtures were processed as though the precipitation had occurred normally. The resulting absolute concentrations of both metals in the supernatants and precipitates, as well as calculated values of the separation factor Er/Ho according to the formula from Example 11) are summarized in Table 6. […] Repetition of the cycles in this experiment also led to a higher degree of enrichment for one of the rare-earth elements. The average separation factor value was 2.97.

[2] = Separation of Nd/Pr mixture by repeated precipitation using L5 and α-HIBA (Example 19); format: physicochemical; conditions: for Precipitate concentration [mM] Nd / precipitate concentration [mM] Pr: dissolved to 200 μL
Protocol: Stock solutions were pipetted into 4 mL glass vials to prepare reaction mixtures with concentrations as follows: • 1. 11 mM (1.1 eq) chelator L5 • 2. 5 mM (0.5 eq) PrCl3 • 3. 5 mM (0.5 eq) NdCl3 • 4. […] (4 eq) α-HIBA pH=6.5 • 5. 500 mM (50 eq) MOPS pH=7
Three aqueous reaction mixtures, numbered 1-3, were prepared with a total volume of 2 mL each and were treated identically throughout the process. A PTFE-coated magnetic stir bar was added to each and the reaction mixtures were stirred on a magnetic stirrer overnight at room temperature. After 18 hours, a 200 μL aliquot of the resulting suspension was taken from each vial and labelled as Al, A2, or A3, according to the reaction mixture number it was taken from. The aliquots were then centrifuged in a plastic Eppendorf centrifuge tube. The supernatant was carefully pipetted from each and transferred to a new set of tubes. To the precipitate was added 200 μL 1 M HCl and the mixture was stirred until full dissolution (about 1 hour at room temperature). The Nd and Pr content of these precipitate and supernatant samples was determined by ICP-OES. The remaining 1800 μL of reaction mixture were centrifuged in plastic Eppendorf centrifuge vials, and the supernatant was set aside. A sample of the supernatant was analysed on HPLC-MS and peak areas were compared to those of a standard 10 mM chelate solution; this allowed for calculation of the approximate concentration of chelate remaining in solution, and therefore of the quantity of chelate which had precipitated. The total volume for subsequent reactions was scaled according to this information, such that the concentration of chelate in solution prior to precipitation was 10 mM, even as the net quantity of chelate present was reduced. The precipitate, then, was dissolved by addition of 25 molar equivalents of 1 M HCl and transferred to a clean 4 mL glass vial with a PTFE-coated magnetic stir bar. 4 molar equivalents of a-HIBA were added to this vial, followed by 50 molar equivalents 3 M MOPS pH=7, the necessary calculated volume of water, and 25 molar equivalents 2 M NaOH to finish neutralising the reaction mixture. (The final reaction volume here was not so important as the final reaction concentrations.) The reaction mixtures were again stirred on a magnetic stirrer at room temperature overnight. After 18 hours, the resulting suspensions were treated in the same manner as before, with 200 μL aliquots (labelled as B1, B2, B3) taken for ICP-OES determination of the Nd and Pr content of the precipitate and supernatant. The remaining 1600 μL of reaction mixture were centrifuged, and the supernatant was analysed by HPLC-MS; the precipitate was treated as before to again yield a reaction solution with an initial concentration of 10 mM of chelate. The reaction mixtures were stirred overnight for the third repetition of processing, and 200 μL aliquots (C1, C2, C3) were again treated for ICP-OES determination of Nd and Pr content in the precipitate and supernatant after 18 hours. The resulting absolute concentrations of both metals in the supernatants and precipitates, as well as calculated values of the separation factor Nd/Pr according to the formula from Example 11), are summarized in Table 13. […] The average separation factor was 1.69.

Structure (SMILES): O=C(O)CN1CCN(CC(=O)O)CCN(Cc2ccccc2)CCN(CC(=O)O)CC1 [L1, 2,2′,2″-(10-benzyl-1,4,7,10-tetraazacyclododecane-1,4,7-triyl)triacetic Acid]
- average separation factor value Er/Ho ([1]; all samples): 2.97
- Separation factor Er/Ho ([1]; group A, 1st cycle): 2.89 and 2.84 and 3.04
- Supernatant concentration [mM] Ho ([1]; group A, 1st cycle): 0.36 mM and 0.33 mM
- Precipitate concentration [mM] Ho ([1]; group A, 1st cycle): 4.53 mM and 4.46 mM and 4.68 mM
- Precipitate concentration [mM] Ho ([1]; group A, 1st cycle, mean): 4.56 mM
- Supernatant concentration [mM] Ho ([1]; group A, 1st cycle, mean): 0.35 mM
- Separation factor Er/Ho ([1]; group B, 2nd cycle): 2.69 and 2.94 and 3.69
- Supernatant concentration [mM] Ho ([1]; group B, 2nd cycle (water, 80° C., 24 hours)): 0.27 mM and 0.32 mM and 0.25 mM
- Supernatant concentration [mM] Ho ([1]; group B, 2nd cycle (water, 80° C., 24 hours), mean): 0.28 mM
- Precipitate concentration [mM] Ho ([1]; group B, 2nd cycle): 3.89 mM and 3.98 mM and 3.64 mM
- Precipitate concentration [mM] Ho ([1]; group B, 2nd cycle, mean): 3.84 mM
- Separation factor Er/Ho ([1]; group C, 3rd cycle): 2.38 and 2.79 and 3.47
- Supernatant concentration [mM] Ho ([1]; group C, 3rd cycle (water, 80° C., 24 hours)): 0.39 mM and 0.37 mM and 0.27 mM
- Supernatant concentration [mM] Ho ([1]; group C, 3rd cycle (water, 80° C., 24 hours), mean): 0.34 mM
- Precipitate concentration [mM] Ho ([1]; group C, 3rd cycle): 3.16 mM and 3.13 mM and 3.75 mM
- Precipitate concentration [mM] Ho ([1]; group C, 3rd cycle, mean): 3.35 mM

Structure (SMILES): O=C(O)CN1CCN(CC(=O)O)CCN(Cc2cccc3ccccc23)CCN(CC(=O)O)CC1 [L5, 2,2′,2″-(10-(naphthalene-1-ylmethyl)-1,4,7,10-tetraazacyklododekane-1,4,7-triyl)triacetic acid]
- Supernatant concentration [mM] Nd ([2]; A, 1st precipitation): 1.16 mM and 1.49 mM
- supernatant concentration [mM] Pr ([2]; A, 1st precipitation, 20 mM (4 eq) α-HIBA): 0.73 mM and 1.00 mM and 0.72 mM
- supernatant concentration [mM] Pr ([2]; A, 1st precipitation, 20 mM (4 eq) α-HIBA, mean): 0.82 mM
- Precipitate concentration [mM] Nd ([2]; A, 1st precipitation): 3.34 mM and 3.17 mM and 3.59 mM
- precipitate concentration [mM] Pr ([2]; A, 1st precipitation): 3.57 mM and 3.50 mM and 3.83 mM
- Precipitate concentration [mM] Nd ([2]; A, 1st precipitation, mean): 3.37 mM
- precipitate concentration [mM] Pr ([2]; A, 1st precipitation, mean): 3.63 mM
- Supernatant concentration [mM] Nd ([2]; A, 1st precipitation, mean): 1.27 mM
- Supernatant concentration [mM] Nd ([2]; B, 2nd precipitation): 0.94 mM and 0.79 mM and 0.88 mM
- supernatant concentration [mM] Pr ([2]; B, 2nd precipitation): 0.63 mM and 0.56 mM and 0.58 mM
- Precipitate concentration [mM] Nd ([2]; B, 2nd precipitation): 3.81 mM and 3.53 mM and 3.91 mM
- precipitate concentration [mM] Pr ([2]; B, 2nd precipitation): 4.45 mM and 4.22 mM and 4.52 mM
- Precipitate concentration [mM] Nd ([2]; B, 2nd precipitation, mean): 3.75 mM
- precipitate concentration [mM] Pr ([2]; B, 2nd precipitation, mean): 4.40 mM
- Supernatant concentration [mM] Nd ([2]; B, 2nd precipitation, mean): 0.87 mM
- supernatant concentration [mM] Pr ([2]; B, 2nd precipitation, mean): 0.59 mM
- Supernatant concentration [mM] Nd ([2]; C, 3rd precipitation): 0.87 mM and 0.93 mM and 0.75 mM
- supernatant concentration [mM] Pr ([2]; C, 3rd precipitation): 0.66 mM and 0.74 mM and 0.56 mM
- Precipitate concentration [mM] Nd ([2]; C, 3rd precipitation): 3.70 mM and 3.29 mM and 4.06 mM
- precipitate concentration [mM] Pr ([2]; C, 3rd precipitation): 4.70 mM and 4.31 mM and 4.98 mM
- Precipitate concentration [mM] Nd ([2]; C, 3rd precipitation, mean): 3.68 mM
- precipitate concentration [mM] Pr ([2]; C, 3rd precipitation, mean): 4.66 mM
- Supernatant concentration [mM] Nd ([2]; C, 3rd precipitation, mean): 0.85 mM
- supernatant concentration [mM] Pr ([2]; C, 3rd precipitation, mean): 0.65 mM
